Source: US20200291018A1, “TAM KINASE INHIBITORS” (SYROS PHARMACEUTICALS, INC., priority 2017, published 2020)
Structures can show the parent of a compound that is named as a salt.

Key:
TYRO3 = molecular target: T1, TYRO3 (Homo sapiens, UniProt Q06418); assay: TR-FRET kinase activity assay, TYRO3; format: biochemical; conditions: ATP at Km, 60 minutes
T1 sequence (Q06418 41-890): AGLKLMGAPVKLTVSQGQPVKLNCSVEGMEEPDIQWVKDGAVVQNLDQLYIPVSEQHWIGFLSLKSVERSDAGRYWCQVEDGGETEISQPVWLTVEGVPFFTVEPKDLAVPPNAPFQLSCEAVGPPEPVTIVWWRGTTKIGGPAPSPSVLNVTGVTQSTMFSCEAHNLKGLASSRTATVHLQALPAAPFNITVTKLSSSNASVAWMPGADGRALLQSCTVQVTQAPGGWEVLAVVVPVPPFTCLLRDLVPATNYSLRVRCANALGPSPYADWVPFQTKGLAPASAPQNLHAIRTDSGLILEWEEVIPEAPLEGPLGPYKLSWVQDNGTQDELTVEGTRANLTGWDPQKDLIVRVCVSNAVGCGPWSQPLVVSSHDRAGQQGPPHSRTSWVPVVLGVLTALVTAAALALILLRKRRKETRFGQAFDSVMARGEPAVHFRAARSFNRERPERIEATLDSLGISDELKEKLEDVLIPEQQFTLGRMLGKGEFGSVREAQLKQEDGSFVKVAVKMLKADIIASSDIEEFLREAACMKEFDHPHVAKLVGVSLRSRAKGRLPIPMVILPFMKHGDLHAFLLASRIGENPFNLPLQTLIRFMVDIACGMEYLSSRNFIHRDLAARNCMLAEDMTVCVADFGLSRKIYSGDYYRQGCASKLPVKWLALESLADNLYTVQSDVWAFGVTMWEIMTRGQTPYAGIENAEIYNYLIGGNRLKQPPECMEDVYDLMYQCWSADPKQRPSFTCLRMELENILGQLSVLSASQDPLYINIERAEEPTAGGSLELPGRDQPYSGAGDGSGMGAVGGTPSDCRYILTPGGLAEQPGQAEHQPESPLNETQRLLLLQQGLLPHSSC
How it was run: (§1)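 TR-FRET signal from Eu-labeled phospho-site antibody bound to tyrosine-phosphorylated fluorescent peptide; inhibition lowers signal, giving IC50. Reactions: 50 mM HEPES pH 7.5, 10 mM MgCl2, 1 mM EGTA, 0.01% Brij 35, 1 mM DTT, ATP at Km per enzyme, 60 min, RT.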

MERTK = molecular target: T2, MERTK (Homo sapiens, UniProt Q12866); assay: TR-FRET kinase activity assay, MERTK; format: biochemical; conditions: for IC50: TR-FRET activity assay, ATP at Km, 60 minutes, read-out: Mer IC50; for Mer/Flt3 ratio (FLT3 IC50/Mer IC50): ratio calculated as FLT3 IC50/Mer IC50
T2 sequence (Q12866 21-999): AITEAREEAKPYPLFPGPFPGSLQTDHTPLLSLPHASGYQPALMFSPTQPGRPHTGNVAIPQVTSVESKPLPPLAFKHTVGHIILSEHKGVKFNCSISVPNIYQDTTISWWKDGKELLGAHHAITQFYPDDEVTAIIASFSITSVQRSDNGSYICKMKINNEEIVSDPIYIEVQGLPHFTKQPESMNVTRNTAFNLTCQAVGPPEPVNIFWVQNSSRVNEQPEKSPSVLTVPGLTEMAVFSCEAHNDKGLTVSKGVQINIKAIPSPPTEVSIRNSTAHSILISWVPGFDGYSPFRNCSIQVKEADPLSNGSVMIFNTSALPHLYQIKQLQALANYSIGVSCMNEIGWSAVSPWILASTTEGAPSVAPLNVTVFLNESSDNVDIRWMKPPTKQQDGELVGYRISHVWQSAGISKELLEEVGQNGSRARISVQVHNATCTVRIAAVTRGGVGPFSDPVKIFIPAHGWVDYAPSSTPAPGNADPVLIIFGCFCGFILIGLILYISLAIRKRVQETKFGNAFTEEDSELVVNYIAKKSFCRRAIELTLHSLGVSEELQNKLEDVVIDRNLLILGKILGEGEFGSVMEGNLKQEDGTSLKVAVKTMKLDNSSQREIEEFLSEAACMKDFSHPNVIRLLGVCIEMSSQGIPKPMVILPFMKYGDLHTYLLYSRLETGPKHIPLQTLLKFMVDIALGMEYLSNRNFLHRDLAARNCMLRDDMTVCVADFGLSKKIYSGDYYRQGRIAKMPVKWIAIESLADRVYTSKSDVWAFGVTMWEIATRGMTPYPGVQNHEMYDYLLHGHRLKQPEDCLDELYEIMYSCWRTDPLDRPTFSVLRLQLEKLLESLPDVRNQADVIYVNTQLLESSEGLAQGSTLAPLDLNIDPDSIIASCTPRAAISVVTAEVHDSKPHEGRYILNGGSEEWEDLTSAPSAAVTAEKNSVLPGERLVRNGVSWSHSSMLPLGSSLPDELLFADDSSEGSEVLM
How it was run: as §1

Compound | IC50 (TYRO3) | IC50 (MERTK) | Mer/Flt3 ratio (FLT3 IC50/Mer IC50) (MERTK)
CCCCNc1ncc2c(=O)n(-c3ccc(CN4CCOCC4)cc3)cc([C@H]3CC[C@H](O)CC3)c2n1 [Compound 101] | 100 to 1000 nM | ≤ 100 nM | + (a ratio of >2.0 and <10)
CCCCNc1ncc2c(NCc3ccc(F)cc3)ncc([C@H]3CC[C@H](O)CC3)c2n1 [Compound 103, 4-[2-(butylamino)-5-[(4-fluorophenyl)methylamino]pyrido[4,3-d]pyrimidin-8-yl]cyclohexanol hydrochloride] | ≤ 100 nM | ≤ 100 nM | + (a ratio of >2.0 and <10)
CCCCNc1ncc2c(OC3CCOCC3)ncc([C@H]3CC[C@H](O)CC3)c2n1 [Compound 104, (1r,4r)-4-(2-(butylamino)-5-((tetrahydro-2H-pyran-4-yl)oxy)pyrido[4,3-d]pyrimidin-8-yl)cyclohexanol] | ≤ 100 nM | ≤ 100 nM | + (a ratio of >2.0 and <10)
CCCCNc1ncc2c(OC)ncc([C@H]3CC[C@H](O)CC3)c2n1 [Compound 127] | ≤ 100 nM | ≤ 100 nM | + (a ratio of >2.0 and <10)
CCCC(C)Nc1ncc2c(=O)n(C3CCN(C(C)=O)CC3)cc([C@H]3CC[C@H](O)CC3)c2n1 (stereo partly drawn) [Compound 128, 6-(1-acetylpiperidin-4-yl)-8-((1r,4r)-4-hydroxycyclohexyl)-2-(pentan-2-ylamino)pyrido[4,3-d]pyrimidin-5(6H)-one hydrochloride] | ≤ 100 nM | ≤ 100 nM | +++ (a ratio of >100)
CCCCNc1ncc2c(OC3CCNCC3)ncc([C@H]3CC[C@H](O)CC3)c2n1 [Compound 129] | ≤ 100 nM | ≤ 100 nM | + (a ratio of >2.0 and <10)
CCCCC[C@H](C)Nc1ncc2c(OC3CCNCC3)ncc([C@H]3CC[C@H](O)CC3)c2n1 [Compound 130] | ≤ 100 nM | ≤ 100 nM | +++ (a ratio of >100)
CCCCNc1ncc2c(OC3CCN(C)CC3)ncc([C@H]3CC[C@H](O)CC3)c2n1 [Compound 131] | ≤ 100 nM | ≤ 100 nM | + (a ratio of >2.0 and <10)
O[C@H]1CC[C@H](c2cnc(OC3CCOCC3)c3cnc(NC4CCCC4)nc32)CC1 [Compound 132] | ≤ 100 nM | ≤ 100 nM | ++ (a ratio of between 10 and 100)
CCCC(C)Nc1ncc2c(OC3CCOCC3)ncc([C@H]3CC[C@H](O)CC3)c2n1 (stereo partly drawn) [Compound 133] | ≤ 100 nM | ≤ 100 nM | +++ (a ratio of >100)
O[C@H]1CC[C@H](c2cnc(OC3CCOCC3)c3cnc(Nc4ccc(Cl)cc4)nc32)CC1 [Compound 134, (1r,4r)-4-(2-((4-chlorophenyl)amino)-5-((tetrahydro-2H-pyran-4-yl)oxy)pyrido[4,3-d]pyrimidin-8-yl)cyclohexan-1-ol] | ≤ 100 nM | ≤ 100 nM | + (a ratio of >2.0 and <10)
CC(C)Nc1ncc2c(OC3CCNCC3)ncc([C@H]3CC[C@H](O)CC3)c2n1 [Compound 135] | ≤ 100 nM | ≤ 100 nM | +++ (a ratio of >100)
CCCC(C)Nc1ncc2c(N(C)C3CCN(C)CC3)ncc([C@H]3CC[C@H](O)CC3)c2n1 (stereo partly drawn) [Compound 146] | ≤ 100 nM | ≤ 100 nM | ++ (a ratio of between 10 and 100)

The next lines start with the values.

IC50 (TYRO3) | IC50 (MERTK) | Mer/Flt3 ratio (FLT3 IC50/Mer IC50) (MERTK) | Compound
≤ 100 nM | ≤ 100 nM | ++ (a ratio of between 10 and 100) | O[C@H]1CC[C@H](c2cnc(OC3CCNCC3)c3cnc(N[C@H]4CCOC4)nc32)CC1 [Compound 136]
100 to 1000 nM | 100 to 1000 nM | ++ (a ratio of between 10 and 100) | C[C@@H](CO)Nc1ncc2c(OC3CCOCC3)ncc([C@H]3CC[C@H](O)CC3)c2n1 [Compound 137]
≤ 100 nM | ≤ 100 nM | +++ (a ratio of >100) | CCCC(C)Nc1ncc2c(=O)n(C3CCN(S(C)(=O)=O)CC3)cc([C@H]3CC[C@@H](O)CC3)c2n1 (stereo partly drawn) [Compound 138]
≤ 100 nM | ≤ 100 nM | +++ (a ratio of >100) | CCCC(C)Nc1ncc2c(O[C@H]3CC[C@H](O)CC3)ncc([C@H]3CC[C@H](O)CC3)c2n1 (stereo partly drawn) [Compound 139]
≤ 100 nM | ≤ 100 nM | +++ (a ratio of >100) | CCC(C)Nc1ncc2c(OC3CCOCC3)ncc([C@H]3CC[C@H](O)CC3)c2n1 (stereo partly drawn) [Compound 140]
≤ 100 nM | ≤ 100 nM | +++ (a ratio of >100) | CCCC(C)Nc1ncc2c(OC3CCS(=O)(=O)CC3)ncc([C@H]3CC[C@H](O)CC3)c2n1 (stereo partly drawn) [Compound 141]
100 to 1000 nM | ≤ 100 nM | ++ (a ratio of between 10 and 100) | CCCC(C)Nc1ncc2c(OC3CCS(=O)(=O)CC3)ncc([C@H]3CC[C@@H](O)CC3)c2n1 (stereo partly drawn) [Compound 142]
≤ 100 nM | ≤ 100 nM | +++ (a ratio of >100) | CCCC(C)Nc1ncc2c(OC3CCN(S(C)(=O)=O)CC3)ncc([C@H]3CC[C@H](O)CC3)c2n1 (stereo partly drawn) [Compound 143]
100 to 1000 nM | ≤ 100 nM | + (a ratio of >2.0 and <10) | CC1(C)CC(Nc2ncc3c(OC4CCOCC4)ncc([C@H]4CC[C@H](O)CC4)c3n2)C1 [Compound 144]
≤ 100 nM | 100 to 1000 nM | ++ (a ratio of between 10 and 100) | COC[C@@H](C)Nc1ncc2c(OC3CCOCC3)ncc([C@H]3CC[C@H](O)CC3)c2n1 [Compound 145]
≤ 100 nM | ≤ 100 nM | +++ (a ratio of >100) | CCCC(C)Nc1ncc2c(OC3CCC(OC)CC3)ncc([C@H]3CC[C@H](O)CC3)c2n1 (stereo partly drawn) [Compound 147]
≤ 100 nM | ≤ 100 nM | +++ (a ratio of >100) | CCCC(C)Nc1ncc2c(O[C@H]3CC[C@@H](O)CC3)ncc([C@H]3CC[C@H](O)CC3)c2n1 (stereo partly drawn) [Compound 148]
≤ 100 nM | ≤ 100 nM | +++ (a ratio of >100) | CCCC(C)Nc1ncc2c(=O)n(C3CCN(CC(=O)N(C)C)CC3)cc([C@H]3CC[C@@H](O)CC3)c2n1 (stereo partly drawn) [Compound 149]
≤ 100 nM | ≤ 100 nM | +++ (a ratio of >100) | CCCC(C)Nc1ncc2c(=O)n(C3CCN(CCOC)CC3)cc([C@H]3CC[C@H](O)CC3)c2n1 (stereo partly drawn) [Compound 150]
≤ 100 nM | ≤ 100 nM | +++ (a ratio of >100) | CCCC(C)Nc1ncc2c(=O)n(C3CCN(CCC(=O)N(C)C)CC3)cc([C@H]3CC[C@H](O)CC3)c2n1 (stereo partly drawn) [Compound 151]
≤ 100 nM | ≤ 100 nM | +++ (a ratio of >100) | CCC[C@@H](C)Nc1ncc2c(=O)n(C3CCNCC3)cc([C@H]3CC[C@H](O)CC3)c2n1 [Compound 152]
